Measurements published in patent publication US20220008388A1 (Certego Therapeutics Inc., priority 2018, published 2022).
Entries after “also recorded” stand apart in the source; their conditions may differ. Like-named read-outs stand apart in the source and are kept apart here.

What was measured:
[1] = test system: d-amphetamine-induced hyperactivity; test: d-amphetamine-induced hyperlocomotion, rodent model of mania; format: in vivo; conditions: mice, 20 min before d-amphetamine 3.5 mg/kg
[2] = female mother rats; cited from earlier work
[3] = cited from earlier work
[4] = test system: immediate early gene c-fos expression in the brain; conditions: mouse
Experimental: (A) Mice were treated with a drug or vehicle solution for the control group using either intraperitoneal (i.p.), per oral (p.o.). subcutaneous (s.c.), intramuscular (i.m.) or intravenous (i.v.) delivery.
(C) After the aforementioned c-fos induction period, the mice were sacrificed and the c-fos induction was visualized using whole-brain immunostaining. The brains were then chemically cleared and imaged by light-sheet fluorescent microscopy (LSFM).
(D) The whole-brain scans are depicted as serial section datasets with an XYZ resolution of about 4×4×5 microns.
(E) The c-fos-positive cells were detected in these datasets using custom algorithms.
(F) The whole-brain distribution of the detected c-fos-positive cells was then represented in 3D as a spatial map of centroid points in the 3D space of the mouse brain.
(G) This 3D map distribution was registered to a reference mouse brain and spatially voxelized using overlapping 150-micron sphere voxels.
This method called “pharmacomapping” (implemented as a fee for service by CRO Certerra, Inc. Farmingdale, N.Y.) is based on a proprietary and largely automated drug-screening platform that comprises whole-brain detection of drug-evoked neuronal activation represented by drug-evoked expression of the immediate early gene (IEG) c-fos. Until now, the detection of c-fos as a marker of brain activation required time-consuming, laborious methods such as in situ hybridization or immunohistochemistry in brain tissue sections, followed by mounting the sections on microscopic slides, manual imaging, and largely visual quantification. Nevertheless, over the last two decades a number of studies used these methods to test drug-evoked activity in the mouse or rat brain for various psychoactive medications, including antipsychotics, antidepressants, stimulants and anxiolytics (Engber et al., 1998; Salminen et al., 1996; SEMBA et al., 1996; Slattery et al., 2005; Sumner et al., 2004).
In contrast to the older methods, the pharmacomapping method uses largely automated and standardized whole-brain immunostaining and brain clearing together with advanced microscopy (light-sheet fluorescence microscopy, LSFM), computational (e.g. machine learning) and statistical methods (FIG. 1; see, for example, the published U.S. Patent Application No. 2014/0297199, the content of which is incorporated by reference herein in its entirety). The first generation of this platform used serial two-photon tomography (STPT) as a method for imaging and c-fos-GFP mice expressing green fluorescent protein (GFP) under the control of the c-fos promoter (see, e.g., published U.S. Patent Application No. 2014/0297199, the content of which is incorporated by reference herein in its entirety).
The second generation of the pharmacomapping platform currently employed by Certerra uses whole-brain immunostaining and clearing procedure named iDISCO+ and whole-brain imaging by light-sheet fluorescence microscopy to detect c-fos-positive neurons in wild type mice (Renier et al., 2016).

[5] = cited from earlier work; remark: listed apart in the source

Row | Compound | moderation of d-amphetamine-induced locomotion (ambulatory counts) ([1]; lithium 14.1 mg/kg) | state of alertness compared to control rats fed placebo [2] | people who stopped taking lithium because of adverse events ([3]; BD patients, epidemiological study (Öhlund et al., 2018)) [%] | patients showing good long-term efficacy ([3]; BD patients, long-term maintenance (Scott et al., 2017)) | lithium concentration in drinking water with anti-suicide effect ([3]; drinking water) | serum lithium concentration associated with mild toxicity ([3]; human) [mmol/L] | serum lithium concentration that can be life-threatening ([3]; human) | serum lithium concentration for maintenance treatment ([3]; maintenance of bipolar disorder) [mmol/L] | brain activation (c-fos induction) ([4]; lithium 85 mg/kg alone (HED about 425 mg)) | brain activation (c-fos induction) ([4]; lithium 120 mg/kg (HED about 600 mg)) | brain activation (c-fos induction) ([4]; lithium 150 mg/kg alone (HED about 750 mg)) | brain activation (c-fos induction) ([4]; lithium 200 mg/kg alone (HED about 1000 mg)) | brain activation (c-fos induction) ([4]; lithium 300 mg/kg (HED about 1500 mg)) | brain activation (c-fos induction) ([4]; lithium 400 mg/kg as printed) | moderation of d-amphetamine-induced locomotion (ambulatory counts) ([1]; gaboxadol 3 mg/kg, Anova p=0.007, Fisher's PLSD p=0.6) | adverse side-effects in clinical trials ([5]; human doses equivalent to the mouse 6 mg/kg dose) | effects in sleep onset and sleep maintenance ([5]; insomnia, three-month efficacy study) | brain activation (c-fos induction) ([4]; gaboxadol 3 mg/kg alone (HED about 15 mg)) | brain activation (c-fos induction) ([4]; gaboxadol 6 mg/kg alone (HED about 30 mg)) | brain activation (c-fos induction) ([4]; gaboxadol 20 mg/kg (HED about 100 mg))
1 | O=C([O-])[O-].[Li+].[Li+] [lithium, lithium carbonate] | had no behavioral effect; also recorded: not moderated | low | 62 | approximately 30% | less than 150 μg/L | 1.2 to 2.5 | greater than 3.5 mmol/L | 0.6 to 1.0 | did not elicit any detectable c-fos signaling activity; also recorded: neither gaboxadol at 3 mg/kg nor lithium at 85 mg/kg alone evoked any brain activation; also recorded: neither lithium at 85 mg/kg (top row; human equivalent dose about 425 mg), nor gaboxadol at 3 mg/kg (middle row; human equivalent dose about 15 mg) induced any brain activation on their own | modest to moderate activation of a few structures | modest to moderate activation of a few structures; also recorded: moderate brain activation | considerably broader activation; also recorded: moderate brain activation | prominently activated; also recorded: closely matched that of gaboxadol at 20 mg/kg; also recorded: broad activation pattern | considerably broader activation |  |  |  |  |  | 
2 | Oc1noc2c1CCNC2 [gaboxadol, 4,5,6,7-tetrahydroisoxazolo (5,4-c) pyridin-3-ol] |  |  |  |  |  |  |  |  |  |  |  |  |  |  | only modestly | no adverse side-effects | failed to show significant effects | did not elicit any detectable c-fos signaling activity; also recorded: neither gaboxadol at 3 mg/kg nor lithium at 85 mg/kg alone evoked any brain activation; also recorded: nor gaboxadol at 3 mg/kg (middle row; human equivalent dose about 15 mg) induced any brain activation on their own | moderate brain activation | broad cortical activation
3 | [6Li] [lithium-6] |  | very high |  |  |  |  |  |  |  |  |  |  |  |  |  |  |  |  |  | 
